Data from ChEMBL document CHEMBL4020759, “Sulfoximines as ATR inhibitors: Analogs of VE-821” (2017).

Key:
Type in all cases: functional
IGROV-1 = test: Growth inhibition of human IGROV1 cells assessed as cell growth at 10 uM incubated for 48 hrs by sulforhodamine B assay; details: IGROV-1, 48 h, read-out: Activity
OVCAR-8 = test: Growth inhibition of human OVCAR8 cells assessed as cell growth at 10 uM incubated for 48 hrs by sulforhodamine B assay; details: OVCAR-8, 48 h, read-out: Activity
MDA-MB-435 = test: Growth inhibition of human MDA-MB-435 cells assessed as cell growth at 10 uM incubated for 48 hrs by sulforhodamine B assay; details: MDA-MB-435, 48 h, read-out: Activity

| Compound | growth at 10 µM (IGROV-1) | growth at 10 µM (OVCAR-8) | growth at 10 µM (MDA-MB-435) |
| --- | --- | --- | --- |
| CS(=O)(=NC#N)c1ccc(-c2cnc(N)c(C(=O)Nc3ccccc3)n2)cc1 (stereo unspecified) | 59.8% | 96.8% | 87.7% |
| C/S(=N\C#N)c1ccc(-c2cnc(N)c(C(=O)Nc3ccccc3)n2)cc1 (stereo unspecified) | 56.9% | 102% | 84% |
